Results published in ChEMBL document CHEMBL4665890, “N-Trifluoromethyl Amines and Azoles: An Underexplored Functional Group in the Medicinal Chemist's Toolbox” (J Med Chem, 2020).

Experiments:
physchem [1] = settings: buffer, pH 7.4
physchem [2] = settings: buffer, pH 7.4; remark: listed apart in the source
physchem [3] = settings: 0.1 M HCl solution, pH 1
Description: Half life in 0.1 M HCl solution at pH 1.0 at 25 degC by UPLC analysis

in vitro [4] = settings: human, Caco-2
Description: Passive permeability from apical to basolateral side in human Caco-2 cells

in vitro [5] = settings: human, liver microsomes
Description: Metabolic stability in human liver microsomes

physchem [6] = settings: 20 mM sodium phosphate buffer, pH 7.4
Description: Half life in 20 mM sodium phosphate buffer at pH 7.4 at 25 degC by UPLC analysis

physchem [7] = settings: 20 mM sodium carbonate buffer, pH 10
Description: Half life in 20 mM sodium carbonate buffer at pH 10 at 25 degC by UPLC analysis

[8] = Stability in neat DMSO at 10 mM at room temperature under air without protection from sunlight measured after 1 month by LC-MS analysis; type: physicochemical; settings: 730 h, 10000 µM, time 1 months
[9] = Stability in neat […] DMSO/H2O 1:4 mixture assessed as compound hydrolysis at 10 mM at room temperature under air without protection from sunlight measured after 1 month by NMR analysis; type: physicochemical; settings: 730 h, 10000 µM, time 1 months
[10] = Stability in neat […] DMSO/H2O 1:4 mixture assessed as compound hydrolysis at 10 mM at room temperature under air without protection from sunlight measured after 1 month by LC-MS analysis; type: physicochemical; settings: 730 h, 10000 µM, time 1 months
[11] = Stability in neat […] DMSO/H2O 1:4 mixture assessed as compound hydrolysis at 10 mM at room temperature under air without protection from sunlight measured after 0.5 hrs by LC-MS analysis; type: physicochemical; settings: 10000 µM
physchem [12] = test: physchem
Description: Dissociation constant, pKa1 of compound by spectrophotometry

[13] = Stability in neat […] DMSO/H2O 1:4 mixture assessed as compound hydrolysis at 10 mM at room temperature under air without protection from sunlight measured after 24 hrs by LC-MS analysis; type: physicochemical; settings: read-out: Drug degradation
[14] = Stability in absence of glutathione by LC-MS analysis; type: physicochemical; settings: gsh
[15] = Stability in presence of glutathione by LC-MS analysis; type: physicochemical; settings: solution with glutathione
physchem [16] = test: physchem; remark: listed apart in the source
Description: Dissociation constant, pKa2 of compound by spectrophotometry

CC(=O)c1ccc(N2CCN(C(=O)c3cnn(C(F)(F)F)c3)CC2)cc1
chromatographic logD (physchem [1]): 2.3 | logD (physchem [2]): 1.9 | half-life (physchem [3]): 984 h | Papp A→B (in vitro [4]): 71 ×10⁻⁶ cm/s | microsomal CLint (in vitro [5]): < 3 µL/min/mg | half-life (physchem [6]): > 1730 h | half-life (physchem [7]): 408 h

COc1ccc(CC(=O)Nc2cnn(C(C)C)c2)cc1OC
chromatographic logD (physchem [1]): 0.9 | logD (physchem [2]): 1.6 | Papp A→B (in vitro [4]): 44 ×10⁻⁶ cm/s | microsomal CLint (in vitro [5]): < 3.3 µL/min/mg

Cc1cc(NS(=O)(=O)c2ccc(N(C)C)cc2)no1
chromatographic logD (physchem [1]): 1.3 | logD (physchem [2]): 0.6

FC(F)(F)n1cnc2ccccc21
Stabilty [8]: Stable | Stabilty [9]: Stable | Stabilty [10]: Stable

CN(c1cccc(F)c1)C(F)(F)F
Stabilty [8]: Stable

FC(F)(F)N1CCc2ccccc21
Stabilty [11]: Unstable | Stabilty [8]: Stable

CCCCN(C)c1ccc(C(=O)OCCN(C)C)cc1
chromatographic logD (physchem [1]): 3.3 | logD (physchem [2]): 2.8

CC(=O)c1ccc(N2CCN(C(=O)c3cnn(C)c3)CC2)cc1
chromatographic logD (physchem [1]): 0.6 | logD (physchem [2]): 1.1 | Papp A→B (in vitro [4]): 42 ×10⁻⁶ cm/s | microsomal CLint (in vitro [5]): < 3 µL/min/mg

Cn1c(-c2cscn2)nc2ccccc21
chromatographic logD (physchem [1]): 1.5 | logD (physchem [2]): 2.3 | Papp A→B (in vitro [4]): 72 ×10⁻⁶ cm/s | microsomal CLint (in vitro [5]): 172 µL/min/mg | pKa (physchem [12]): 4.9

CC(=O)c1ccc(N2CCN(C(=O)c3cnn(C(C)C)c3)CC2)cc1
chromatographic logD (physchem [1]): 1.5 | logD (physchem [2]): 1.8 | Papp A→B (in vitro [4]): 40 ×10⁻⁶ cm/s | microsomal CLint (in vitro [5]): < 4.2 µL/min/mg

COc1ccc(N(C)C(F)(F)F)cc1
Stabilty [11]: Unstable | Stabilty [8]: Stable

CN(c1ccccc1)C(F)(F)F
Stabilty [11]: Unstable | Stabilty [8]: Stable

FC(F)(F)N1CCN(c2ccccc2)CC1
Stabilty [11]: Unstable | Stabilty [8]: Stable

FC(F)(F)N1CCCc2ccccc21
Stabilty [11]: Unstable | Stabilty [8]: Stable

Cn1cc(Nc2nc(N[C@H]3CC[C@H](N(C)C)CC3)c3cccn3n2)cn1
chromatographic logD (physchem [1]): < 0 | logD (physchem [2]): 0.6 | Papp A→B (in vitro [4]): 2.4 ×10⁻⁶ cm/s | microsomal CLint (in vitro [5]): < 3 µL/min/mg

CN(C)[C@H]1CC[C@H](Nc2nc(Nc3cnn(C(F)(F)F)c3)nn3cccc23)CC1
chromatographic logD (physchem [1]): 2.2 | logD (physchem [2]): 2.2 | half-life (physchem [3]): > 1730 h | Papp A→B (in vitro [4]): 12 ×10⁻⁶ cm/s | microsomal CLint (in vitro [5]): < 3 µL/min/mg | half-life (physchem [6]): > 1730 h | half-life (physchem [7]): 1700 h

CN(c1ccc(C#N)cc1)C(F)(F)F
Stabilty [8]: Stable | degraded at 24 h, 10000 µM [13]: 24%

CN(c1ccc(F)cc1)C(F)(F)F
Stabilty [8]: Stable

COc1ccc(CC(=O)Nc2cnn(C)c2)cc1OC
chromatographic logD (physchem [1]): 0.1 | logD (physchem [2]): 0.9 | Papp A→B (in vitro [4]): 42 ×10⁻⁶ cm/s | microsomal CLint (in vitro [5]): < 3 µL/min/mg

CC(=O)c1ccc(N2CCN(C(=O)c3cnn(C(C)(C)C)c3)CC2)cc1
chromatographic logD (physchem [1]): 2.2 | logD (physchem [2]): 2.2 | Papp A→B (in vitro [4]): 66 ×10⁻⁶ cm/s | microsomal CLint (in vitro [5]): < 4.5 µL/min/mg

CCCc1nn(C)c2c(=O)[nH]c(-c3cc(S(=O)(=O)N4CCN(C)CC4)ccc3CC)nc12
chromatographic logD (physchem [1]): 3.3 | logD (physchem [2]): 2.7

CN(C)[C@H]1CC[C@H](Nc2nc(Nc3cnn(C(C)(C)C)c3)nn3cccc23)CC1
chromatographic logD (physchem [1]): 1.5 | logD (physchem [2]): 1.7 | Papp A→B (in vitro [4]): 11 ×10⁻⁶ cm/s | microsomal CLint (in vitro [5]): < 3 µL/min/mg

CCCCN(c1ccc(C(=O)OCCN(C)C)cc1)C(F)(F)F
chromatographic logD (physchem [1]): 4.9 | logD (physchem [2]): > 4 | half-life (physchem [3]): < 14.4 h | half-life (physchem [6]): < 14.4 h | half-life (physchem [7]): < 14.4 h

CCCCN(C(=O)F)c1ccc(C(=O)OCCN(C)C)cc1
half-life [14]: 3.95 h | half-life [15]: 1.1 h

CCCc1nn(C)c2c(=O)[nH]c(-c3cc(S(=O)(=O)N4CCN(C(F)(F)F)CC4)ccc3CC)nc12
chromatographic logD (physchem [1]): > 5.3 | logD (physchem [2]): > 4 | half-life (physchem [3]): < 31.2 h | half-life (physchem [6]): < 19.2 h | half-life (physchem [7]): < 12 h

CCOC(=O)N(Cc1ccccc1)C(F)(F)F
Stabilty [11]: Unstable | Stabilty [8]: Stable

CC(C)n1cc(Nc2nc(N[C@H]3CC[C@H](N(C)C)CC3)c3cccn3n2)cn1
chromatographic logD (physchem [1]): 1.1 | logD (physchem [2]): 1.4 | Papp A→B (in vitro [4]): 8.4 ×10⁻⁶ cm/s | microsomal CLint (in vitro [5]): < 3 µL/min/mg

Cc1ccc(N(C)C(F)(F)F)cc1
Stabilty [11]: Unstable | Stabilty [8]: Stable

FC(F)(F)n1c(-c2cscn2)nc2ccccc21
chromatographic logD (physchem [1]): 3.3 | logD (physchem [2]): 3 | half-life (physchem [3]): > 1730 h | Papp A→B (in vitro [4]): 58 ×10⁻⁶ cm/s | microsomal CLint (in vitro [5]): 39 µL/min/mg | half-life (physchem [6]): > 1730 h | pKa (physchem [12]): < 2 | half-life (physchem [7]): > 1730 h

FC(F)(F)n1cccn1
Stabilty [8]: Stable | Stabilty [9]: Stable | Stabilty [10]: Stable

COc1ccc(CC(=O)Nc2cnn(C(F)(F)F)c2)cc1OC
chromatographic logD (physchem [1]): 2.2 | logD (physchem [2]): 2.4 | half-life (physchem [3]): 288 h | Papp A→B (in vitro [4]): 56 ×10⁻⁶ cm/s | microsomal CLint (in vitro [5]): 53 µL/min/mg | half-life (physchem [6]): > 1730 h | half-life (physchem [7]): > 1730 h

Cc1cc(NS(=O)(=O)c2ccc(N(C)C(F)(F)F)cc2)no1
chromatographic logD (physchem [1]): 1.5 | logD (physchem [2]): 1.6 | half-life (physchem [3]): 4.8 h | half-life (physchem [6]): 9.6 h | half-life (physchem [7]): 7.2 h

CCN(c1ccccc1)C(F)(F)F
Stabilty [11]: Unstable | Stabilty [8]: Stable

COc1ccc(CC(=O)Nc2cnn(C(C)(C)C)c2)cc1OC
chromatographic logD (physchem [1]): 1.6 | logD (physchem [2]): 2 | Papp A→B (in vitro [4]): 45 ×10⁻⁶ cm/s | microsomal CLint (in vitro [5]): < 4.1 µL/min/mg

Cc1ccc(-c2cn(C)cn2)cc1NC(=O)c1ccc(OCc2ccccn2)cc1
pKa (physchem [16]): 3.9 | chromatographic logD (physchem [1]): 2.2 | logD (physchem [2]): 2.7 | Papp A→B (in vitro [4]): 72 ×10⁻⁶ cm/s | microsomal CLint (in vitro [5]): 4.8 µL/min/mg | pKa (physchem [12]): 5.8

CN(c1ccc(C(F)(F)F)cc1)C(F)(F)F
Stabilty [8]: Stable | degraded at 24 h, 10000 µM [13]: 90%
